Measurements published in patent US6743818B2, “Cyclobutaindolecarboxamide compounds” (Les Laboratoires Servier, priority 2000, dated 2004).

Columns and labels:
[1] = system: Male mice of the NMRI strain; assay: Marble-burying test in the mouse; format: in vivo; details: s.c.; inhibition of spontaneous marble-burying, 30 minutes' free exploration
From the text: This test allows evaluation of the capacity of pharmacological agents to inhibit the spontaneous marble-burying behaviour of mice, the inhibition being predictive of antidepressant and/or anti-impulsive action. Male mice of the NMRI strain (Iffa-Credo, l'Arbresle, France) weighing from 20 to 25 g on the day of the experiment are placed individually in Macrolon boxes (30×18×19 cm) containing 5 cm of sawdust and covered with a perforated plexiglass plate. Twenty four “tiger's eye” glass marbles are evenly distributed on the sawdust at the periphery of the box. At the end of 30 minutes' free exploration, the animals are removed from the box and the number of buried marbles is counted.

male Wistar rats = assay: Vogel conflict test; format: in vivo, rat; details: s.c.; for Punished licks (1 shock/20 licks): 3 minutes of test
Protocol: The test is carried out on male Wistar rats (IFFA-CREDO) weighing from 230 to 250 g, which are kept in groups of 4 on sawdust in cages in an animal house, with free access to food and drink, for 5 days before they are used, under the following conditions: temperature (21±1° C.), humidity (60±5%) and a 12 hour diurnal cycle (07:00 to 19:00 hours).
On the Monday following their arrival, the animals are transferred to the experiment room where they stay until Friday, the day of the test. For 4 days, from Monday to Thursday inclusive, the animals have access to drink for only one hour per day (from 09:00 to 10:00 hours).
On the day before the test, the animals are isolated from 15:00 hours in cages, on grills, without either food or drink.
The test is carried out in a transparent plastics cage located in a soundproofed and ventilated enclosure. The cage has a chrome steel floor. The metal tip of the bottle containing the drink enters the cage at a height of 6 cm above the metal floor. The floor and the tip of the bottle are connected by electric cables to an apparatus which records the licks of the animal and controls the administration of electric shocks. The apparatus is so regulated that the animal receives an electric shock (between tip and metal floor) every 20 licks of the tip.
On the day of the test, the animal is given an injection (s.c.) of physiological serum (control) or of the test product 30 minutes before being placed in the test cage. The session begins as soon as the animal has carried out 20 licks and received a first electric shock (duration 0.5 seconds, intensity 0.300 mA). For a period of 3 minutes, the animal receives an electric shock each time it carries out 20 licks.
The results are the numbers of licks and of shocks received by the animal during the 3 minutes of the test.
The numbers of licks and of shocks received by the treated animals are compared with those of the control animals by variance analysis, followed by a Dunnett's test with p<0.05. An anxiolytic product increases the number of licks and of shocks received by the animal compared with the controls. For information only, the average number of licks not punished in the animals which have been made thirsty is 674.9±44.5 (N=7) over 3 minutes.
The effectiveness of a product is expressed by the minimum effective dose (MED), that is to say, the lowest dose producing a significant difference compared with the controls. That dose is 2.5 mg/kg s.c. for the product of Example 1.

## O=C(Nc1cccnc1)N1CCc2cc3c(cc21)CC3 [Example 1, N-(3-Pyridyl)-2,3,5,6-tetrahydro-1H-cyclobuta[f]indole1-carboxamide]
[1]
  MED (minimum effective dose): 2.5 mg/kg
Male Wistar rats; dose 0.63 mg/kg, N=8
  Punished licks (1 shock/20 licks): 197.5 ± 59.5
Male Wistar rats; dose 2.5 mg/kg, N=8, *p < 0.05
  Punished licks (1 shock/20 licks): 560.1 ± 67.0*
Male Wistar rats; dose 10.0 mg/kg, N=7, *p < 0.05
  Punished licks (1 shock/20 licks): 499.3 ± 95.3*
Male Wistar rats; 30 minutes before test, lowest dose producing a significant difference compared with the controls (p<0.05)
  minimum effective dose (MED): 2.5 mg/kg
